A short description of data set [1]: Optical properties of the CypH dyes: absorbance maximum and extinction coefficient in EtOH (Table 1). It is filed as physicochemical. The following applies: for Ex Coeff (M^−1cm^−1) @ Abs Max: at absorbance maximum. As to the method: Characterization: All new CypH dyes were characterized by proton NMR and mass spectrometry to confirm identity. NMR data was consistent with the structure and mass spectrometry results gave the expected mass of the dye±0.5 amu. An HPLC method was developed (see below) and used to assess dye purity. […] Retention times on the column generally correlated with lipophilicity of the dyes with water soluble dyes containing sulfate groups eluting out earlier (@10.6 min for CypH-3, 6, 9) than CypH-1 (@11.9 min) and the more lipophilic dyes later. Optical properties of the dyes, acid dissociation constants and solubilities were also determined. Synthetic intermediates were also characterized by proton NMR.

The nature of data set [2]: Fluorescence properties of the CypH dyes at pH 5.0 and pH 7.5 (Table 2). It is filed as physicochemical. The following applies: for Ratio Intensity pH 5.0/7.5: fluorescence intensity pH 5.0 over pH 7.5. An excerpt:
The excitation and emission maxima of CypH-1 are 760 and 777 nm, respectively. The signal intensity ratio of pH 5 over pH 7.5 was about 10. The meso-bridge ring size, lipophilicity and electro-density of CypH-1 was modified to provide better optical property. […] The best compound from this group was CypH-5 whose fluorescence ratio of pH 5.0/pH 7.5 was increased to 22. Based on this initial structure and property relationship, the second round of 10 new analogs were designed using CypH-5 as the core, focusing on modifying the electron density on the aniline ring and the indolinium ring. Various alkyl groups, such as methyl, ethyl, propyl, isopropyl and their combinations, were applied to these two positions.
The CypH analogs with other longer alkyl chains had much lower background fluorescence. […] Among them, CypH-11, which has a methyl isopropyl aniline and an isopropyl group on the indolinium ring, gave a 112-fold enhancement in fluorescence signal. CypH-11 has absorbance and emission maxima at 766 nm and 785 nm, respectively (FIG. 4) and was selected as the lead compound (vide infra).

Data set [3] has as its system OVASAHO/RFP-Luc subcutaneous tumors. The data set is described as follows: In vivo fluorescence imaging of subcutaneous tumors by spraying, OVASAHO/RFP-Luc model. Also on record: species or system mice. The following applies: for fluorescence on tumor and normal tissue after spray: no washing; for signal to background ratio (tumor-to-muscle): 2 μM. An excerpt: Detection of subcutaneous tumors by spraying. To evaluate the in vivo performance of the fluorogenic probes via the “spray-and-see” technique, an OVASAHO subcutaneous tumor model was used. For a facile signal co-registration, the cells were first engineered to express red fluorescence protein (RFP). Two weeks after subcutaneous inoculating of OVASAHO/RFP-Luc cells into both flanks, the tumors reached around 5 mm in size. The skin on the tumor area was removed, then the CypH-11 or Cy7 solution (2 μM in PBS) was sprayed once onto the exposed area. The whole body fluorescence images were continuously captured at various time points without washing (FIG. 14A). The tumor tissues were conveniently delineated by their intrinsic RFP fluorescence.
Tumor models of subcutaneous implants and peritoneal implants. All animal procedures were carried out in compliance with the approved animal protocols and guidelines of the Institutional Animal Care and Use Committee at Weil Cornell Medical College. Mice (female, SCID Hairless Outbred Mouse) were purchased from Charles River (Wilmington, MA). To establish the subcutaneous implants, a suspension of OVASAHO/RFP-Luc cells (5.0×10^6) or SKOV3/GFP-Luc cells (5.0×10^6) in 100 μL PBS was inoculated into each flank of the female nude mice on both sides. After two weeks, the tumor implants grew to around 5 mm in size and were used for the spray experiment. To establish the peritoneal implants, SKOV3/GFP-Luc cells (5.0×10^6) suspended in […] were injected into the abdominal cavities of the female nude mice. After two weeks, the tumor growth was examined with an in vivo bioluminescence imaging system followed by peritoneal injection of D-luciferin potassium solution (200 μL, 15 mg/mL) for 10 min. Generally, mice bearing multiple disseminated peritoneal implants of 5 mm size in diameter were used for the experiment.
In vivo fluorescence imaging of subcutaneous tumors. Two subcutaneous tumor models (OVASAHO/RFP-Luc and SKOV3/GFP-Luc) were used to compare the imaging capability of CypH-11, CypH-1, and Cy7. Mice bearing the subcutaneous implants were anesthetized in an induction chamber using 2% isoflurane, and anesthesia was maintained with 1.5-2.0% isoflurane via a nose cone. Sterile surgical tools were used to remove skin around the tumor. The mice images were captured using an IVIS SpectrumCT System from PerkinElmer (Waltham, MA). OVASAHO/RFP-Luc and SKOV3/GFP-Luc tumors were captured under an RFP channel (Excitation: 520-550 nm and Emission: 570-590 nm) and a GFP channel (Excitation: 450-480 nm and Emission: 510 530 nm), respectively. A Cy7 channel (Excitation: 730-760 nm and Emission: 790-810 nm) was applied to evaluate the fluorescence generated by CypH-11, CypH-1, and Cy7. After skin removal, the tumor area and the background fluorescence under the Cy7 channel were measured first. Solutions of CypH-11, CypH-1, and Cy7 (2 μM each) were sprayed on the surgical area, and the fluorescence of the Cy7 channel was measured continuously at each time point (1, 3, 5, 7, 10, and 15 min). Ten, five, and three OVASAHO tumors were used to evaluate CypH-11, CypH-1, and Cy7, respectively. Six SKOV3 tumors were used to evaluate CypH-11. To evaluate the tumor-to-normal tissue ratio, the whole tumor regions and the adjacent open-skin areas were drawn, and their fluorescence intensity was acquired by the IVIS software. Tumor-to-normal tissue ratio value was calculated as the average fluorescence intensity of the tumor divided by that of the normal area. Also, tumor-bearing mice were euthanized by carbon dioxide inhalation or a high dose of isoflurane (5%). The subcutaneous tumors and the adjacent muscles were then extracted, and CypH-11 (2 μM) was sprayed onto them. Images were subsequently captured under GFP/RFP/Cy7 channels.

The nature of data set [4]: Absorbance and fluorescence spectra (excitation/emission maxima). The class given is physicochemical.
A further data set relates to OVASAHO cells. The data set is described as follows: Cell viability, cell counting kit-8 (CCK-8). The following applies: 2 μM for 1 hr, then 72 hrs in fresh medium. It is filed as cell-based. As to the method: Cell viability. The cell viability of CypH-11 and CypH-1 were evaluated using the cell counting kit-8 (CCK-8) from Dojindo (Rockville, MD). OVASAHO cells (5.0×10^3) were seeded on a 96-well plate and cultured for 24 hrs. Then the cells were treated with CypH-11 (2 μM) and CypH-1 (2 μM) for 1 hr. After replacing the medium with fresh cell culture medium, the cells were incubated for another 72 hrs. The cell viability was examined by treating them with CCK-8 solution for 3 hrs and reading the absorbance at 450 nm using a plate reader.
Background: Tetrazolium dyes change colour on reduction, which living cells bring about.

Setting [5] is: conditions not stated, previously published lead probe.

Several values for one entry are separate records, joined by “and”; a condition that tells them apart may be missing. Equal entries are not always repeated. Entries after “also recorded” stand apart in the source; their conditions may differ.

Usually cell viability stands for a per cent measure of how many cells are alive, often set against a control. High values mean less harm to the cells, low ones more harm to the cells.

With `CC(C)N(C)c1ccc(OC2=C(/C=C/C3=[N+](C(C)C)c4ccccc4C3(C)C)CCC/C2=C\C=C2\N(C(C)C)c3ccccc3C2(C)C)cc1.[I-]` [CypH-11], in data set [1], the “Ex Coeff (M^−1cm^−1) @ Abs Max” value was 233,800 M^−1cm^−1 and the “Abs. Max (nm) in EtOH” value is reported as 771 nm. For the same compound, in data set [2], the “Ratio Intensity pH 5.0/7.5” value amounted to 112, the “FL Intensity pH 5.0” value is recorded as 5028, the “FL Max (nm) pH 5.0” value was found to be 790 nm and the “FL Intensity pH 7.5” value is listed as 45. In data set [2], the “FL Max (nm) pH 7.5” value stood at 785 nm. The “Ratio Intensity pH 5.0/7.5” value in data set [2] (listed as 11) is recorded as 111.7. In addition, the “time to fluorescence plateau” value in data set [3] (2 μM in PBS, sprayed once) is recorded as at most 10 min. Moreover, the “fluorescence on tumor and normal tissue after spray” value in data set [3] (2 μM sprayed) was “high fluorescence only on tumors but not on normal tissue”. In addition, the “signal to background ratio (tumor-to-muscle)” value (“signal to background ratio” below) in data set [3] (1 min after spray) was found to be 1.3. Besides, the “signal to background ratio” value in data set [3] (5 min after spray) stood at 1.4. In addition, the “signal to background ratio” value in data set [3] (10 min after spray) is 1.5. In addition, in data set [4] (2 μM, pH 5.0 phosphate buffer), the “Emmax / emission maximum” value came out at 785 nm; the “Exmax / absorbance maximum” value is 766 nm and 765 nm. In the data set on OVASAHO cells, this compound gave a cell viability of 91.0±4.6%.
On to `CN(C)c1ccc(OC2=C(/C=C/C3=[N+](C)c4ccccc4C3(C)C)CCC/C2=C\C=C2\N(C)c3ccccc3C2(C)C)cc1.[Cl-]` [CypH-1, reference compound], for which, in data set [1], the “Ex Coeff (M^−1cm^−1) @ Abs Max” value is 74,450 M^−1cm^−1 and the “Abs. Max (nm) in EtOH” value stood at 760 nm. Further, in data set [2], the “Ratio Intensity pH 5.0/7.5” value is “about 10”, the “FL Intensity pH 5.0” value worked out at 3363, the “FL Max (nm) pH 5.0” value was determined as 787 nm and the “FL Intensity pH 7.5” value is 334. Also, the “FL Max (nm) pH 7.5” value in data set [2] is listed as 782 nm. Moreover, the “Ratio Intensity pH 5.0/7.5” value in data set [2] (listed as 1) was 10.1. For the same compound, in data set [3] (2 μM sprayed, all time points), the “tumor to muscle ratio over the time course” value is “around 1.0”. Moreover, the “fluorescence on tumor and normal tissue after spray” value in data set [3] (2 μM sprayed) was “failed to detect the ovarian tumors by spraying; also recorded: very poor fluorescence enhancement in both the tumor and neighboring normal tissues”. Also, in data set [4] (setting [5]), the emission maximum is 777 nm and the excitation maximum worked out at 760 nm. In the data set on OVASAHO cells, the cell viability is 95.5±6.9%.

For the origin of these results see patent US20230302159A1, “COMPOUNDS AND COMPOSITIONS FOR TUMOR DETECTION AND SURGICAL GUIDANCE” (Cornell University, priority 2020, published 2023).
